Results from patent US11319295B2, “Substituted phenyloxetane and phenyltetrahydrofuran compounds as indoleamine 2,3-dioxygenase (IDO) inhibitors” (MERCK SHARP & DOHME CORP., priority 2017, dated 2022).
Like-named read-outs stand apart in the source and are kept apart here.

Tests used:
[1] = biological target: T1, IDO1 (Homo sapiens, UniProt P14902); experiment: IDO1 Human Whole Blood Assay; type: cell-based; design: Human whole blood was drawn in sodium heparin coated tubes from healthy internal donors; from tissue; host or cells: human whole blood from healthy donors, stimulated with LPS and IFNγ; conditions: LPS and IFNγ 100 ng/mL, 18 h, kynurenine by LC/MS/MS, form screened: Neutral
Description: IDO1 Human Whole Blood Assay
LPS and IFNγ was prepared in RPMI to a 10× of final conc. (1000 ng/mL), final concentration is 100 ng/mL.
Human whole blood was drawn in sodium heparin coated tubes from healthy internal donors. […] of blood was transferred to each of the wells of a v-bottom 96 well plate. […] of compound was transferred from intermediate dilution plate, and incubated for 15 min. 30 μL from stimulants was then transferred to blood and mixed thoroughly. Plate was covered with breathable membrane and incubated at 37° C. for overnight (18 h).
On day 2 isotope labeled standard of kynurenine and tryptophan was made in water at 10× concentration and […] was added to the blood at […] final concentration. The assay plates were centrifuged at 300×G for 10 min with no brake to separate plasma from red blood cells. […] of plasma samples was removed without disturbing red blood cells. Plasma was diluted with RPMI in 1:1 ratio and proteins were precipitated out with two volume of Acetonitrile. The plates was centrifuged at 4000×G for 60 min. 20 mL of supernatant was carefully transferred to a 384 well plate contain 40 mL of 0.1% formic acid in water and analyzed by LC/MS/MS.
LC/MS/MS analyses were performed using Thermo Fisher's LX4-TSQ Quantum Ultra system. This system consists of four Agilent binary high-performance liquid chromatography (HPLC) pumps and a TSQ Quantum Ultra triple quadruple MS/MS instrument. For each sample, […] were injected onto an Atlantis T3 column (2.1 mm×150 mm, […]) from Waters. The mobile phase gradient pumped at 0.8 mL/min was used to elute the analytes from the column at 25° C. […] Mobile phase A consisted of 0.1% formic acid in water. Mobile phase B consisted of 0.1% of formic acid in acetonitrile. Data was acquired in positive mode using a HESI interface. […] Compounds were titrated and IC50's were calculated by 4 parameter sigmoidal curve fitting formula.

[2] = biological target: T1, IDO1; experiment: IDO1 Cellular Assay in Hela Cells Stimulated with IFNγ; conditions: Hela IC50 (nM), Hela cells stimulated with IFNγ 100 ng/mL, 300 uM L-tryptophan, about 48 hours; form screened: Neutral
Description: Hela cells were cultured in complete Hela culture medium (90% EMEM, 10% heat-inactivated fetal bovine serum) and expanded to about 1×10^9 cells. The cells were then collected and frozen down at 1×10^7 cells/vial in 1 mL frozen medium (90% complete Hela culture medium, 10% DMSO)
Compounds to be tested were serially diluted in ten 3-fold steps in DMSO starting from 10 mM DMSO stocks in Echo low volume plate(s).
Hela cells with and without IFNγ were dispensed to the respective wells of 384-well assay plates containing the compounds. The plates were incubated for about 48 hours at a 37° C., 5% CO2 incubator. Afterwards, 12 mL of 0.5 M methyl isonipecotate in dimethyl sulfoxide were added into each well and the plates were sealed and incubated at 37° C. without CO2 overnight. The plates were centrifuged for 1 min at 200×g. The resulting fluorescence was measured in a Spectramax plate reader (Molecular Devices) with a 400 nm excitation filter and a 510 nm emission filter.
Potencies were calculated by linear least squares fit to the four parameter logistic IC50 equation.

[3] = biological target: TDO (Homo sapiens, UniProt P48775)
Description: TDO Cellular Assay in Frozen SW48 Cells
SW48 cells were cultured in complete RPMI culture medium (90% RPMI, 10% heat-inactivated fetal bovine serum).
SW48 and A2780 cells were dispensed to the respective wells of 384-well assay plates containing the compounds. The plates were incubated for about 48 hours at a 37° C., 5% CO2 incubator. Afterwards, 12 μL of 0.5 M ethyl isonipecotate (Sigma Aldrich, Cat #E33505) in dimethyl sulfoxide were added into each well and the plates were sealed and incubated at 37° C. without CO2 overnight. The plates were centrifuged for 1 minute at 200×g. The resulting fluorescence was measured in a Spectramax plate reader (Molecular Devices) with a 400 nm excitation filter and a 510 nm emission filter.
The fluorescence intensity of each well was corrected for the background observed in wells with A2780 cells and was expressed as a fraction of the intensity observed in wells of SW48 cells and DMSO only. Potencies were calculated by linear least squares fit to the four parameter logistic IC50 equation.

[4] = read-out: SW48 IC50, SW48 cells, 300 uM L-tryptophan, about 48 hours, form screened: Neutral

TDO, sequence (P48775 whole entry): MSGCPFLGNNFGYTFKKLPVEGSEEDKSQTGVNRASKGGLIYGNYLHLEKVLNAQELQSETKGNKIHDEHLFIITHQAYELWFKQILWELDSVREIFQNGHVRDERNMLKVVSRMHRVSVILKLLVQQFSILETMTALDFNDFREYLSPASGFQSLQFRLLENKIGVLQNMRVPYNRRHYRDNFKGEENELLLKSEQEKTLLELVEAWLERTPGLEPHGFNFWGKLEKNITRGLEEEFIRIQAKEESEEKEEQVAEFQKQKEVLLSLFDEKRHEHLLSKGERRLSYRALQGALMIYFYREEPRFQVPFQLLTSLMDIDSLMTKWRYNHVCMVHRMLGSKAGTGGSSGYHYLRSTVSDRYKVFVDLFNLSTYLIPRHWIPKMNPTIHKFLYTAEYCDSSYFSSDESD
T1 sequence (P14902 whole entry): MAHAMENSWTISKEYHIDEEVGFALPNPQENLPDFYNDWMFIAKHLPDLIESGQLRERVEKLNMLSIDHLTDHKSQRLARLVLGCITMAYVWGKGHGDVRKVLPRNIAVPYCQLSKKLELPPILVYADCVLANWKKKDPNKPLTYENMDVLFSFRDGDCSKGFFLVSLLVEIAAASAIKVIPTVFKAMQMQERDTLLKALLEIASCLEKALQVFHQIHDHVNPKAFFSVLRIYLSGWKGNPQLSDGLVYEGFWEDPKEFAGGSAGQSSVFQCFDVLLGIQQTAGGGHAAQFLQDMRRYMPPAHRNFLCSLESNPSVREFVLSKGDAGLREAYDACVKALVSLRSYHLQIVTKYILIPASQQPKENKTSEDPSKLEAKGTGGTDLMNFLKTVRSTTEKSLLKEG

## N#Cc1cccc(C(=O)Nc2ccc(C3(C(=O)Nc4ccc(F)cc4)COC3)nc2)c1 [Example 20, 3-{5-[(3-cyanobenzene-1-carbonyl)amino]pyridin-2-yl}-N-(4-fluorophenyl)oxetane-3-carboxamide]
[1]
  IC50: 0.438 µM
[2]
  IC50: 3 nM

## O=C(Nc1ccc(C2(C(=O)NCC3CC3)COC2)cc1)c1cccc(Cl)c1 [Example 7, 3-{4-[(3-chlorobenzene-1-carbonyl)amino]phenyl}-N-(cyclopropyl-methyl)oxetane-3-carboxamide]
[3]
  IC50: ≥ 10 µM
[2]
  IC50: 56 nM

## O=C(Nc1ccc(C2(C(=O)NCCC(F)(F)F)COC2)cc1)c1cccc(Cl)c1 [Example 6, 3-{4-[(3-chlorobenzene-1-carbonyl)amino]phenyl}-N-(3,3,3-trifluoropropyl)oxetane-3-carboxamide]
[3]
  IC50: ≥ 10 µM
[2]
  IC50: 51 nM

## CC1CC1NC(=O)C1(c2ccc(NC(=O)c3cccc(Cl)c3)cc2)COC1 (single isomer, unassigned) [Example 10, 3-{4-[(3-chlorobenzene-1-carbonyl)amino]phenyl}-N-(2-methylcyclo-propyl)oxetane-3-carboxamide]
[3]; [4]
  IC50: ≥ 10 µM
[2]
  IC50: 352 nM

## CCCNC(=O)C1(c2ccc(NC(=O)c3cccc(Cl)c3)cc2)COC1 [Example 5, 3-{4-[(3-chlorobenzene-1-carbonyl)amino]phenyl}-N-propyloxetane-3-carboxamide]
[1]
  IC50: 1.53 µM
[2]
  IC50: 25 nM

## Cc1cc(C2(C(=O)Nc3ccc(F)cc3)COC2)ncc1NC(=O)c1cccc(C#N)c1 [Example 18, 3-{5-[(3-cyanobenzene-1-carbonyl)amino]-4-methylpyridin-2-yl}-N-(4-fluorophenyl)oxetane-3-carboxamide]
[2]
  IC50: 58 nM

## Cc1cc(NC(=O)c2cccc(Cl)c2)cnc1C1(C(=O)Nc2ccc(F)cc2)COC1 [Example 19, 3-{5-[(3-chlorobenzene-1-carbonyl)amino]-3-methylpyridin-2-yl}-N-(4-fluorophenyl)oxetane-3-carboxamide]
[2]
  IC50: 205 nM

## CC1CC1NC(=O)C1(c2ccc(NC(=O)c3cccc(Cl)c3)cc2)COC1 (single isomer, unassigned) [Example 9, 3-{4-[(3-chlorobenzene-1-carbonyl)amino]phenyl}-N-(2-methylcyclo-propyl)oxetane-3-carboxamide]
[3]; [4]
  IC50: ≥ 10 µM
[2]
  IC50: 216 nM

## CC1CC1NC(=O)C1(c2ccc(NC(=O)c3cccc(Cl)c3)cc2)COC1 (single isomer, unassigned) [Example 8, 3-{4-[(3-chlrobenzene-1-carbonyl)amino]phenyl}-N-(2-methylcyclo-propyl)oxetane-3-carboxamide]
[3]
  IC50: ≥ 10 µM
[2]
  IC50: 85 nM

## O=C(Nc1ccc(C2(C(=O)Nc3ccc(F)cc3)COC2)cc1)c1cccc(Cl)c1F [Example 3, 3-{4-[(3-chloro-2-fluorobenzene-1-carbonyl)amino]phenyl}-N-(4-fluorophenyl)oxetane-3-carboxamide]
[3]
  IC50: ≥ 10 µM
[2]
  IC50: 3 nM

## Cc1cc(C2(C(=O)Nc3ccc(F)cc3)COC2)ncc1NC(=O)c1cccc(Cl)c1 [Example 17, 3-{5-[(3-chlorobenzene-1-carbonyl)amino]-4-methylpyridin-2-yl}-N-(4-fluorophenyl)oxetane-3-carboxamide]
[2]
  IC50: 6 nM

## CC1CC1NC(=O)C1(c2ccc(NC(=O)c3cccc(Cl)c3)cc2)COC1 (single isomer, unassigned) [Example 4, 3-{4-[(3-chlorobenzene-1-carbonyl)amino]phenyl}-N-(2-methylcyclopropyl)oxetane-3-carboxamide]
[3]; [4]
  IC50: ≥ 10 µM
[1]
  IC50: 0.324 µM
[2]
  IC50: 12 nM
